# pIC50, pKi: −log10 of the molar value.
# Experiments:
# [1] = biological target: MSN/CD44 (Homo sapiens, UniProt P26038); assay type: binding; conditions: for activity in MSN/CD44 TR-FRET assay: in words
# [2] = assay type: physicochemical; conditions: for discoloration of solutions prepared for NMR: DMSO-d6 or CDCl3, ambient temperature; for discoloration when dissolved in DMSO: 5 days at ambient temperature
# [3] = tested on: cell cycle progression; conditions: at ≥30 μM; cited from earlier work
# [4] = biological target: NS5; conditions: read-out: NS5 Ki; cited from earlier work
# [5] = tested on: diacylglycerol kinase α (DGKα); conditions: at 5 μM; cited from earlier work
# [6] = tested on: δ-isozyme of DGK; conditions: at 5 μM; cited from earlier work
# [7] = tested on: κ-isozyme of DGK; conditions: at 5 μM; cited from earlier work
# [8] = tested on: ι-isozyme of DGK; conditions: at 5 μM; cited from earlier work
# [9] = tested on: EZH2-EED interaction; conditions: cited from earlier work
# [10] = tested on: WT PRC2-EZH2; conditions: cited from earlier work
# [11] = tested on: IspF domain; conditions: cited from earlier work
# [12] = tested on: H. pylori; conditions: cited from earlier work
# [13] = tested on: Shank3 PDZ domain; conditions: read-out: Shank3 IC50; cited from earlier work
# [14] = tested on: ABCC2; conditions: read-out: IC50 in at least one assay; cited from earlier work
# MSN/CD44, sequence (P26038 2-295): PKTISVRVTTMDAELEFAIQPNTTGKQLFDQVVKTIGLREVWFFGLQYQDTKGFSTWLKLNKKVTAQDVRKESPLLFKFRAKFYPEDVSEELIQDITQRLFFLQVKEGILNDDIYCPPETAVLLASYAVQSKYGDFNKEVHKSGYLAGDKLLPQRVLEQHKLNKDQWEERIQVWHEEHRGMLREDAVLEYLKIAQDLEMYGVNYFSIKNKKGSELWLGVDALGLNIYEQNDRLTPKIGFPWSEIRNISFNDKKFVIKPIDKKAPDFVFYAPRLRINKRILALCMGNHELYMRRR
compound,measurement,setting,value
O=C(O)c1ccc2c(c1)C1C=CCC1C(C(=O)O)N2 (centres unmarked) [Compound 5661118],Hill coefficient,[1]; MSN/CD44 TR-FRET dose–response curve,3.4
same,discoloration of solution prepared for biological evaluation,[2]; DMSO (10 mM),same discoloration
same,discoloration of solutions prepared for NMR,[2]; 72 h,Discoloration
same,cell cycle arrest,[3],failed to elicit cell cycle arrest
O=C(O)C1Nc2c(I)cccc2C2C=CCC12 (centres unmarked) [Compound 5660163],pKi,[4],> 5.00
CC(=O)c1ccc2c(c1)C1C=CCC1C(C(=O)O)N2 (centres unmarked) [CU-4],inhibition of α-isozyme of DGK,[5],strongly inhibit
same,inhibition of δ-isozyme of DGK,[6],strongly inhibit
same,inhibition of κ-isozyme of DGK,[7],strongly inhibit
same,inhibition of ι-isozyme of DGK,[8],strongly inhibit
"CCOC(=O)c1ccc2c(c1)C1C=CCC1C(C(=O)OCC)N2 (centres unmarked) [Compound 1, Diethyl 3a,4,5,9b-tetrahydro-3H-cyclopenta[c]quinoline-4,8-dicarboxylate]",1H NMR analysis of samples kept in CDCl3,"[2]; CDCl3, 120 h in light",no significant changes in the spectra
same,stability in solution kept in the dark,"[2]; DMSO-d6, dark, 72 h, 5 mg",remained a clear solution
same,stability in solution kept in the light,"[2]; DMSO-d6, light, 72 h, 25 mg and 5 mg",decomposed and changed color (purple)
same,discoloration of solutions prepared for NMR,[2]; 72 h,Discoloration
O=C(O)c1cc(-c2ccccn2)c2c(c1)C1C=CCC1C(C(=O)O)N2 (centres unmarked) [WNN2074-A009],inhibition of the EZH2-EED interaction,[9],weak
same,inhibition of WT PRC2-EZH2,[10],inhibited
CCOC(=O)c1ccc2c(c1)C1CCCC1C(C(=O)OCC)N2 (centres unmarked) [Compound 2],activity in MSN/CD44 TR-FRET assay,[1],inactive
same,discoloration when dissolved in DMSO,[2],No discoloration
O=C(O)C1Nc2ccc(Oc3ccccc3)cc2C2C=CCC12 (centres unmarked) [Compound 27],inhibitory effect in IspF domain assay,[11],did not show an inhibitory effect
same,inhibition of H. pylori growth,[12],only a weak inhibitor
O=C(O)[C@@H]1Nc2c(O)cc(Cl)c([N+](=O)[O-])c2[C@@H]2C=CC[C@H]12 [Compound 34],pIC50,[13],> 3.60
O=C(O)c1ccc2c(c1)C1CCCC1C(C(=O)O)N2 (centres unmarked) [Compound 3],activity in MSN/CD44 TR-FRET assay,[1],inactive
same,discoloration when dissolved in DMSO,[2],No discoloration
O=C(O)C1Nc2c(F)cccc2C2C=CCC12 (centres unmarked) [Compound 1e],pIC50,[14],> 4.52
